Key:
[1] = system: HIV-1 NL4-3; assay: Anti-HIV efficacy in fresh human PBMCs, reverse transcriptase readout, HIV-1 NL4-3; type: cell-based; conditions: for TI (TC50/IC50): HIV-1 NL4-3, PBMCs; for IC50: HIV-1 NL4-3, fresh human PBMCs, seven days, RT activity
Description: Compounds were evaluated for their ability to inhibit HIV replication in fresh human PBMCs. The assay was performed as follows.
Fresh human PBMCs, seronegative for HIV and HBV, were isolated from screened donors (Interstate Blood Bank, Inc. Memphis, Tenn.). Cells were pelleted/washed 2-3 times by low speed centrifugation and re-suspension in PBS to remove contaminating platelets. The Leukophoresed blood was then diluted 1:1 with Dulbecco's Phosphate Buffered Saline (DPBS) and layered over 14 mL of Lymphocyte Separation Medium (LSM; Cellgro® by Mediatech, Inc.; density 1.078+/−0.002 g/ml; Cat.#85-072-CL) in a 50 mL centrifuge tube and then centrifuged for 30 minutes at 600×g. Banded PBMCs were gently aspirated from the resulting interface and subsequently washed 2× with PBS by low speed centrifugation. After the final wash, cells were enumerated by trypan blue exclusion and re-suspended at 1×10^7 cells/mL in RPMI 1640 supplemented with 15% Fetal Bovine Serum (FBS), and 2 mM L-glutamine, 4 μg/mL Phytohemagglutinin (PHA-P, Sigma). The cells were allowed to incubate for 48-72 hours at 37° C. After incubation, PBMCs were centrifuged and resuspended in RPMI 1640 with 15% FBS, 2 mM L-glutamine, 100 U/mL penicillin, 100 μg/mL streptomycin, 10 μg/mL gentamycin, and 20 U/mL recombinant human IL-2 (R&D Systems, Inc). IL-2 is included in the culture medium to maintain the cell division initiated by the PHA mitogenic stimulation. PBMCs were maintained in this medium at a concentration of 1-2×10^6 cells/mL with biweekly medium changes until used in the assay protocol. Cells were kept in culture for a maximum of two weeks before being deemed too old for use in assays and discarded. Monocytes were depleted from the culture as the result of adherence to the tissue culture flask.
For the standard PBMC assay, PHA-P stimulated cells from at least two normal donors were pooled (mixed together), diluted in fresh medium to a final concentration of 1×10^6 cells/mL, and plated in the interior wells of a 96 well round bottom microplate at 50 μL/well (5×10^4 cells/well) in a standard format developed by the Infectious Disease Research department of Southern Research Institute. Pooling (mixing) of mononuclear cells from more than one donor is used to minimize the variability observed between individual donors, which results from quantitative and qualitative differences in HIV infection and overall response to the PHA and IL-2 of primary lymphocyte populations. Each plate contains virus/cell control wells (cells plus virus), experimental wells (drug plus cells plus virus) and compound control wells (drug plus media without cells, necessary for MTS monitoring of cytotoxicity). Since HIV-1 is not cytopathic to PBMCs, this allows the use of the same assay plate for both antiviral activity and cytotoxicity measurements. Test drug dilutions were prepared at a 2× concentration in microtiter tubes and 100 μL of each concentration was placed in appropriate wells using the standard format. 50 μL of a predetermined dilution of virus stock was placed in each test well (final MOI≅0.1). The PBMC cultures were maintained for seven days following infection at 37° C., 5% CO2. After this period, cell-free supernatant samples were collected for analysis of reverse transcriptase activity as a measure of virus release. Following removal of supernatant samples, compound cytotoxicity was measured by addition of MTS to the plates for determination of cell viability. Wells were also examined microscopically and any abnormalities were noted.
A microtiter plate-based reverse transcriptase (RT) reaction was utilized (Buckheit et al., AIDS Research and Human Retroviruses 7:295-302, 1991). Tritiated thymidine triphosphate (3H-TTP, 80 Ci/mmol, NEN) was received in 1:1 dH2O:Ethanol at 1 mCi/mL. […]

[2] = system: U1 cells latently infected with HIV-1; assay: U1 latency activation assay (TNF-α induced, supernatant reverse transcriptase); type: cell-based; conditions: for TI (TC50/IC50): Table 6
Description: U1 cells were obtained from the AIDS Research and Reference Reagent Program and maintained under standard culture conditions in RPMI 1640 supplemented with 10% fetal bovine serum (heat inactivated), 2 mM L-glutamine, 100 U/mL penicillin and 100 μg/mL streptomycin. U1 cells are derived from the histocytic leukemia cell line U937, and contain an integrated copy of a cytokine and/or phorbol inducible provirus (HIV-1IIIB). Cultures were maintained in such a way as to ensure exponential growth of the populations. Addition of TNF-α to the cell culture induces HIV-1, so that inhibition of virus production indicates an inhibition of a post-integration function of the HIV-1 life cycle. This is where an inhibitor of Rev function would be expected to act. […]
At the time of the assay, cells were collected by centrifugation and counted by hemacytometer. If cell viability by Trypan Blue dye exclusion was less than 70% the assay was terminated. The cells were adjusted to 5×10^4 cells/mL and 100 μL placed in 96 well plates with 100 μL media containing a final concentration of 5 ng/mL TNF-α and the test compound. Cultures were incubated for 3 days and supernatants harvested. Compound toxicity was determined by MTS dye reduction. Virus expression was measured by supernatant reverse transcriptase activity.
Reverse transcriptase was assayed to measure virus particle release as described above for the PBMC assay.
Compounds were tested in the U1 latency assay using the maximum high-test concentration possible based on the supplied stocks which are listed in table 3. Compounds were tested using the maximum high-test concentration possible based on the supplied stocks. Compounds were prepared at a 2× high-test concentration by combining drug stock with tissue culture media at a ratio of 5 μL of drug to 995 μL of media. This 2× high-test sample was subsequently serially diluted in tissue culture media using 1/2 log dilutions. This series of 2× concentrated drug was subsequently diluted 1:1 by combining with an equal volume of cells in media in the 96-well plates used for the assay. Temacrazine a known inhibitor of HIV transcription was used as a control compound that is active in the post-integration part of the HIV life cycle.
Compounds were tested using the maximum high-test concentration possible based on the supplied stocks. Compounds were prepared at a 2× high-test concentration by combining drug stock with tissue culture media at a ratio of 5 μL of drug to 995 μL of media. This 2× high-test (HT) sample was subsequently serially diluted in tissue culture media using 1/2 log dilutions. This series of 2× concentrated drug was subsequently diluted 1:1 by combining with an equal volume of cells in media in the 96-well plates used for the assay.

[3] = Human immunodeficiency virus 1, NL43, PBMC, 168 h
[4] = Human immunodeficiency virus 1, 72 h, U1 cell assay, Table 6, 5 ng/mL TNF-α, 3 days, RT activity

Molecule | TI (TC50/IC50) [1] | IC50 [1] | TI (TC50/IC50) ([2]; U1 cell assay) | IC50 ([2]; U1 cell assay, Table 6, 5 ng/mL TNF-α, 3 days, RT activity) | IC50 [1, 3] | IC50 [2, 4] | IC50 ([2]; Human immunodeficiency virus 1, U1 cell assay, analogs, Table 8)
2-chloro-N-(4-methylphenyl)-4-(trifluoromethyl)-1,3-thazole-5-carboxamide [Compound 91161] | 5.92 | 2.28 µM | 1.35 | 16.5 µM |  |  | 
CCc1c(C(=O)Nc2ccccc2)c(C)nc2sc(C(N)=O)c(N)c12 [Compound 75168, 3-amino-4-ethyl-6-methyl-N˜5˜-phenylthieno[2,3-b]pyridine-2,5-dicarboxamide] | >1.59 |  |  |  | 16.9 µM |  | 
COc1ccc2cc3c(N)n[nH]c3nc2c1 [Compound 89246, 7-methoxy-1H-pyrazolo[3,4-b]quinolin-3-ylamine] | 14.90 |  | 102 |  | 1.47 µM | 0.24 µM | < 0.172 µM
CCc1c(C)nc2sc(C(N)=O)c(N)c2c1C [Compound 103833, 3-amino-5-ethyl-4,6-dimethylthieno[2,3-b]pyridine-2-carboxamide] | >16.94 |  | >94 |  | 2.22 µM | 0.4 µM | 
COc1ccc2nc(C(F)(F)F)c(C#N)c(N)c2c1 [Compound 104366, 4-amino-6-methoxy-2-(trifluoromethyl)-3-quinolinecarbonitrile] | 23.91 |  | >49.6 |  | 0.92 µM | < 0.25 µM | 
CS(=O)(=O)c1ncc(-c2ccc(Br)cc2)cn1 [Compound 107129, -(4-bromophenyl)-2-(methylsulfonyl)pyrimidine] | 1.95 |  |  |  | 2.12 µM | > 53 µM | 
COc1cccc(NC(=O)c2cc(Cl)nnc2Cl)c1 [Compound 107740, 3,6-dichloro-N-(3-methoxyphenyl)-4-pyridazinecarboxamide] | 8.94 |  | >26.6 |  | 1.61 µM | 1.1 µM | 
Fc1ccc(Nc2ncnc3ccccc23)cc1Cl [Compound 109020, N-(3-chloro-4-fluorophenyl)-N-(4-quinazolinyl)amine] | >1.55 |  | >151 |  | 26.4 µM | 0.27 µM | 

— patent US7875604B2, “Compounds that inhibit HIV particle formation” (University of Virginia Patent Foundation, priority 2004, dated 2011)
